{"source": "PubChem BioAssay (NCI)", "test_in_all_cases": "NCI tumour cell line growth inhibition, 48 h", "key": {"[1]": {"test_system": "786-0 renal"}, "[2]": {"test_system": "A498 renal"}, "[3]": {"test_system": "A549 NSCLC"}, "[4]": {"test_system": "ACHN renal"}, "[5]": {"test_system": "BT-549 breast"}, "[6]": {"test_system": "CAKI-1 renal"}, "[7]": {"test_system": "COLO 205 colon"}, "[8]": {"test_system": "DU-145 prostate"}, "[9]": {"test_system": "EKVX NSCLC"}, "[10]": {"test_system": "HCC-2998 colon"}, "[11]": {"test_system": "HCT-116 colon"}, "[12]": {"test_system": "HCT-15 colon"}, "[13]": {"test_system": "HOP-92 NSCLC"}, "[14]": {"test_system": "HS 578T breast"}, "[15]": {"test_system": "HT29 colon"}, "[16]": {"test_system": "IGROV1 ovarian"}, "[17]": {"test_system": "KM12 colon"}, "[18]": {"test_system": "LOX IMVI melanoma"}, "[19]": {"test_system": "M14 melanoma"}, "[20]": {"test_system": "MALME-3M melanoma"}, "[21]": {"test_system": "MCF7 breast"}, "[22]": {"test_system": "MDA-MB-231 breast"}, "[23]": {"test_system": "MDA-MB-435"}, "[24]": {"test_system": "NCI-H226 lung"}, "[25]": {"test_system": "NCI-H23 lung"}, "[26]": {"test_system": "NCI-H460 lung"}, "[27]": {"test_system": "NCI-H522 lung"}, "[28]": {"test_system": "NCI/ADR-RES ovarian"}, "[29]": {"test_system": "OVCAR-3 ovarian"}, "[30]": {"test_system": "OVCAR-4 ovarian"}, "[31]": {"test_system": "OVCAR-5 ovarian"}, "[32]": {"test_system": "OVCAR-8 ovarian"}, "[33]": {"test_system": "PC-3 prostate"}, "[34]": {"test_system": "RPMI-8226 leukemia"}, "[35]": {"test_system": "RXF 393 renal"}, "[36]": {"test_system": "SF-268 CNS"}, "[37]": {"test_system": "SF-295 CNS"}, "[38]": {"test_system": "SF-539 CNS"}, "[39]": {"test_system": "SK-MEL-2 melanoma"}, "[40]": {"test_system": "SK-MEL-28 melanoma"}, "[41]": {"test_system": "SK-MEL-5 melanoma"}, "[42]": {"test_system": "SK-OV-3 ovarian"}, "[43]": {"test_system": "SN12C renal"}, "[44]": {"test_system": "SNB-19 CNS"}, "[45]": {"test_system": "SNB-75 CNS"}, "[46]": {"test_system": "SW-620 colon"}, "[47]": {"test_system": "T-47D breast"}, "[48]": {"test_system": "TK-10 renal"}, "[49]": {"test_system": "U251 CNS"}, "[50]": {"test_system": "UACC-257 melanoma"}, "[51]": {"test_system": "UACC-62 melanoma"}, "[52]": {"test_system": "UO-31 renal"}}, "note": "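Step 1: Grow cells in 96-well plates. Step 2: Expose to compound for 48 hours at 5 concentrations. Step 3: Interpolate endpoints linearly; if unreached, use highest concentration. The concentration for 50% growth inhibition is given as GI50. TGI denotes the concentration required for complete inhibition of growth.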", "data": [{"compound": "Brc1ccc([I+]c2ccc(Br)cc2)cc1", "values": [{"measurement": "GI50", "setting": "[1]", "value": 1970, "unit": "nM"}, {"measurement": "TGI", "setting": "[1]", "value": 11200, "unit": "nM"}, {"measurement": "GI50", "setting": "[2]", "value": 1970, "unit": "nM"}, {"measurement": "TGI", "setting": "[2]", "value": 10700, "unit": "nM"}, {"measurement": "GI50", "setting": "[3]", "value": 5200, "unit": "nM"}, {"measurement": "TGI", "setting": "[3]", "value": 20200, "unit": "nM"}, {"measurement": "GI50", "setting": "[4]", "value": 4470, "unit": "nM"}, {"measurement": "TGI", "setting": "[4]", "value": 21000, "unit": "nM"}, {"measurement": "GI50", "setting": "[5]", "value": 2020, "unit": "nM"}, {"measurement": "TGI", "setting": "[5]", "value": 12300, "unit": "nM"}, {"measurement": "GI50", "setting": "[6]", "value": 1900, "unit": "nM"}, {"measurement": "TGI", "setting": "[6]", "value": 8980, "unit": "nM"}, {"measurement": "GI50", "setting": "[7]", "value": 1180, "unit": "nM"}, {"measurement": "TGI", "setting": "[7]", "value": 2680, "unit": "nM"}, {"measurement": "GI50", "setting": "[8]", "value": 3600, "unit": "nM"}, {"measurement": "TGI", "setting": "[8]", "value": 16600, "unit": "nM"}, {"measurement": "GI50", "setting": "[9]", "value": 1020, "unit": "nM"}, {"measurement": "TGI", "setting": "[9]", "value": 3040, "unit": "nM"}, {"measurement": "GI50", "setting": "[10]", "value": 1320, "unit": "nM"}, {"measurement": "TGI", "setting": "[10]", "value": 8120, "unit": "nM"}, {"measurement": "GI50", "setting": "[11]", "value": 643, "unit": "nM"}, {"measurement": "TGI", "setting": "[11]", "value": 11500, "unit": "nM"}, {"measurement": "GI50", "setting": "[12]", "value": 8300, "unit": "nM"}, {"measurement": "TGI", "setting": "[12]", "value": 42700, "unit": "nM"}, {"measurement": "GI50", "setting": "[13]", "value": 822, "unit": "nM"}, {"measurement": "TGI", "setting": "[13]", "value": 5690, "unit": "nM"}, {"measurement": "GI50", "setting": "[14]", "value": 2960, "unit": "nM"}, {"measurement": "TGI", "setting": "[14]", "value": 19900, "unit": "nM"}, {"measurement": "GI50", "setting": "[15]", "value": 535, "unit": "nM"}, {"measurement": "TGI", "setting": "[15]", "value": 3160, "unit": "nM"}, {"measurement": "GI50", "setting": "[16]", "value": 1060, "unit": "nM"}, {"measurement": "TGI", "setting": "[16]", "value": 6800, "unit": "nM"}, {"measurement": "GI50", "setting": "[17]", "value": 1290, "unit": "nM"}, {"measurement": "TGI", "setting": "[17]", "value": 2890, "unit": "nM"}, {"measurement": "GI50", "setting": "[18]", "value": 713, "unit": "nM"}, {"measurement": "TGI", "setting": "[18]", "value": 2120, "unit": "nM"}, {"measurement": "GI50", "setting": "[19]", "value": 1530, "unit": "nM"}, {"measurement": "TGI", "setting": "[19]", "value": 5140, "unit": "nM"}, {"measurement": "GI50", "setting": "[20]", "value": 1380, "unit": "nM"}, {"measurement": "TGI", "setting": "[20]", "value": 12300, "unit": "nM"}, {"measurement": "GI50", "setting": "[21]", "value": 825, "unit": "nM"}, {"measurement": "TGI", "setting": "[21]", "value": 10200, "unit": "nM"}, {"measurement": "GI50", "setting": "[22]", "value": 2340, "unit": "nM"}, {"measurement": "TGI", "setting": "[22]", "value": 17000, "unit": "nM"}, {"measurement": "GI50", "setting": "[23]", "value": 1940, "unit": "nM"}, {"measurement": "TGI", "setting": "[23]", "value": 17000, "unit": "nM"}, {"measurement": "GI50", "setting": "[24]", "value": 2930, "unit": "nM"}, {"measurement": "TGI", "setting": "[24]", "value": 15300, "unit": "nM"}, {"measurement": "GI50", "setting": "[25]", "value": 1110, "unit": "nM"}, {"measurement": "TGI", "setting": "[25]", "value": 4200, "unit": "nM"}, {"measurement": "GI50", "setting": "[26]", "value": 866, "unit": "nM"}, {"measurement": "TGI", "setting": "[26]", "value": 4230, "unit": "nM"}, {"measurement": "GI50", "setting": "[27]", "value": 1280, "unit": "nM"}, {"measurement": "TGI", "setting": "[27]", "value": 3180, "unit": "nM"}, {"measurement": "GI50", "setting": "[28]", "value": "> 100000", "unit": "nM"}, {"measurement": "TGI", "setting": "[28]", "value": "> 100000", "unit": "nM"}, {"measurement": "GI50", "setting": "[29]", "value": 1190, "unit": "nM"}, {"measurement": "TGI", "setting": "[29]", "value": 3060, "unit": "nM"}, {"measurement": "GI50", "setting": "[30]", "value": 1500, "unit": "nM"}, {"measurement": "TGI", "setting": "[30]", "value": 10600, "unit": "nM"}, {"measurement": "GI50", "setting": "[31]", "value": 2580, "unit": "nM"}, {"measurement": "TGI", "setting": "[31]", "value": 7900, "unit": "nM"}, {"measurement": "GI50", "setting": "[32]", "value": 1080, "unit": "nM"}, {"measurement": "TGI", "setting": "[32]", "value": 4010, "unit": "nM"}, {"measurement": "GI50", "setting": "[33]", "value": 1250, "unit": "nM"}, {"measurement": "TGI", "setting": "[33]", "value": 3800, "unit": "nM"}, {"measurement": "GI50", "setting": "[34]", "value": 550, "unit": "nM"}, {"measurement": "TGI", "setting": "[34]", "value": 10500, "unit": "nM"}, {"measurement": "GI50", "setting": "[35]", "value": 2670, "unit": "nM"}, {"measurement": "TGI", "setting": "[35]", "value": 11500, "unit": "nM"}, {"measurement": "GI50", "setting": "[36]", "value": 1030, "unit": "nM"}, {"measurement": "TGI", "setting": "[36]", "value": 2400, "unit": "nM"}, {"measurement": "GI50", "setting": "[37]", "value": 1700, "unit": "nM"}, {"measurement": "TGI", "setting": "[37]", "value": 5850, "unit": "nM"}, {"measurement": "GI50", "setting": "[38]", "value": 1370, "unit": "nM"}, {"measurement": "TGI", "setting": "[38]", "value": 4280, "unit": "nM"}, {"measurement": "GI50", "setting": "[39]", "value": 1360, "unit": "nM"}, {"measurement": "TGI", "setting": "[39]", "value": 3090, "unit": "nM"}, {"measurement": "GI50", "setting": "[40]", "value": 1430, "unit": "nM"}, {"measurement": "TGI", "setting": "[40]", "value": 3790, "unit": "nM"}, {"measurement": "GI50", "setting": "[41]", "value": 545, "unit": "nM"}, {"measurement": "TGI", "setting": "[41]", "value": 1830, "unit": "nM"}, {"measurement": "GI50", "setting": "[42]", "value": 1500, "unit": "nM"}, {"measurement": "TGI", "setting": "[42]", "value": 3120, "unit": "nM"}, {"measurement": "GI50", "setting": "[43]", "value": 1600, "unit": "nM"}, {"measurement": "TGI", "setting": "[43]", "value": 4260, "unit": "nM"}, {"measurement": "GI50", "setting": "[44]", "value": 1380, "unit": "nM"}, {"measurement": "TGI", "setting": "[44]", "value": 2760, "unit": "nM"}, {"measurement": "GI50", "setting": "[45]", "value": 1600, "unit": "nM"}, {"measurement": "TGI", "setting": "[45]", "value": 8030, "unit": "nM"}, {"measurement": "GI50", "setting": "[46]", "value": 992, "unit": "nM"}, {"measurement": "TGI", "setting": "[46]", "value": 4310, "unit": "nM"}, {"measurement": "GI50", "setting": "[47]", "value": 1780, "unit": "nM"}, {"measurement": "TGI", "setting": "[47]", "value": 11000, "unit": "nM"}, {"measurement": "GI50", "setting": "[48]", "value": 1970, "unit": "nM"}, {"measurement": "TGI", "setting": "[48]", "value": 13300, "unit": "nM"}, {"measurement": "GI50", "setting": "[49]", "value": 1320, "unit": "nM"}, {"measurement": "TGI", "setting": "[49]", "value": 2650, "unit": "nM"}, {"measurement": "GI50", "setting": "[50]", "value": 2060, "unit": "nM"}, {"measurement": "TGI", "setting": "[50]", "value": 5530, "unit": "nM"}, {"measurement": "GI50", "setting": "[51]", "value": 2870, "unit": "nM"}, {"measurement": "TGI", "setting": "[51]", "value": 17500, "unit": "nM"}, {"measurement": "GI50", "setting": "[52]", "value": 5960, "unit": "nM"}, {"measurement": "TGI", "setting": "[52]", "value": 26100, "unit": "nM"}]}]}
